In series [1] the test system is Oxaliplatin-induced cold allodynia. Description: Acetone test, chronic model of oxaliplatin-induced neuropathy in rats. As to conditions: for cumulative cold score (acetone test) / reaction time of paw withdrawal (acetone test): 0.5% HPMC/Oxaliplatin-treated group; for decrease in the reaction time of paw withdrawal as compared to the HPMC/distilled water-treated group: oxaliplatin 3 mg/kg i.p. 3 times a week + 0.5% HPMC. Type of series: in vivo, Sprague-Dawley rats. How it is done:
Sixty male Sprague-Dawley rats (CERJ, France), weighing 136-169 g at the beginning of the experimental phase (first administration of compounds on D-2), were used. Rats were housed in a temperature (19.5° C.-24.5° C.) and relative humidity (45%-65%) controlled room with a 12 h—light/dark cycle, with ad libitum access to standard pelleted laboratory chow and water throughout the study.
All treatments were administered in a coded order when it is possible.
Animals were tested 2 times during treatment with compound 63 (i.e. D8 and D15) and once 24 h after completion of treatment with compound 63 (i.e. D16).
During the testing days (i.e. D8, D15), compound 63 and 0.5% HPMC were administered 30 min before the test.
Cold allodynia was assessed by measuring the responses to thermal non-nocic ptive stimulation (acetone test) on D8, D15 and D16.
Cold allodynia was assessed using the acetone test. In this test, latency of hindpaw withdrawal was measured after application of a drop of acetone to the plantar surface of both hindpaws (reaction time) and the intensity of tne response was scored (cold score).
Reaction time to the cooling effect of acetone was measured within 20 sec (cut-off) after acetone application. Responses to acetone were also graded to the following 4-point scale: 0 (no response); 1 (quick withdrawal, flick of the paw); 2 (prolonged withdrawal or marked flicking of the paw); 3 (repeated flicking of the paw with licking or biting).
For each experimental group, the results were expressed as: • The reaction time defined as the time expressed in sec required to elicit paw reaction (mean of 6 measures for each rat together±SEM). • The cumulative cold score defined as the sum of the 6 scores for each rat together±SEM. The minimum score being 0 (no response to any of the 6 trials) and the maximum possible score being 18 (repeated flicking and licking or biting of paws on each of the six trials).
Statistical significance between the treated groups and the vehicle-treated group was determined by a Two-way Repeated Measures ANOVA on Ranks followed, when the F value is significant, by an appropriate post-hoc comparison (Bonferroni's test sing SigmaStet software. The significance level was p<0.05. Statistical analyses were done using SigmaStet software.

Series [2] deals with paclitaxel-induced mechanical allodynia. Description: Electronic Von Frey (Dynamic Plantar Aesthesiometer), paclitaxel-induced mechanical allodynia in mice. Type of series: in vivo, CD-1 mice. As to conditions: paclitaxel 2 mg/kg i.p. during 5 days. How it is done: (§1) Experiments were performed in CD-1 mice (Charles River, U.S.A.) with at least n=10/experimental group. […] Control animals received the same volume of solvent (a mixture of ethanol and cremophor EL)
(§2) Mechanical allodynia was evaluated with an electronically driven Von Frey filament (Dynamic Plantar. Aesthesiorneter, Ugo Basile, Varese, Italy) as previously described (Nieto et al., Pain, 2008, 137(3), 520-31), and cold allodynia was evaluated using the acetone drop method (Nieto et al., Pain, 2008, 137(3), 520-31). […] In addition, in order to study the influence of the sigma 1 receptor in this process the difference in development of allodynia was determined using wild-type mice and sigma 1-receptor knock-out-mice.
Therefore, the cumulative dose was 10 mg/kg per mouse. In the control group the vehicle of paclitaxel was administered following the same schedule.
Compound 63 was dissolved in normal saline just before administration and applied at doses of 8, 16, 32 or 64 mg/kg subcutaneously.
The effects of Compound 63 on paclitaxel-induced neuropathic pain were examined in two different ways. […] The response of the animals to the different nociceptive stimuli was tested subsequently during 2-4 weeks, depending on the test (see below), without any additional treatment. Each animal was tested only in one nociceptive model. To test the effect of compound 63 on the expression of paclitaxel-induced pain, a single compound 63 injection was performed on day 10, a day of maximum expression of mechanical allodynia or cold aliodynia (see figures for details). Each animal received only one dose of compound 63 and was tested in only one nociceptive model.
Procedure for assessment of mechanical allodynia. To assess mechanical allodynia, paw withdrawal thresholds were measured using a Dynamic Plantar Aesthesiometer (Ugo Basile, Italy). The electronic Von Frey device employs a single nonflexible filament which applies a progressively increasing force (from 0 to 10 g) against the plantar surface of the hind paw over a 20 a period. […] The day of the experiment, mice were placed individually in test compartments (9×9×14 cm) with a wire mesh bottom and allowed to acclimatize to them for 2 h. After habituation, each mouse was tested three times alternately in each hind paw.
On that day, paw withdrawal latency was recorded immediately before (time 0) and at several times (30, 60, 90, 120 and 180 min) after the injection of compound 63 or saline.

In series [3] the test system is patients treated with paclitaxel. The conditions noted are these: paclitaxel dose 135 mg/m^2; cited from earlier work.
For series [4], the system named is paclitaxel-induced cold allodynia. The series is described as follows: Acetone test, paclitaxel-induced cold allodynia in mice. As to conditions: paclitaxel 2 mg/kg i.p. once daily during 5 days; mice. Type of series: in vivo, CD-1 mice. How it is done:
as §1, §2
Therefore, the cumulative dose was 10 mg/kg per mouse. […]
The response of the animals to the different nociceptive stimuli was tested subsequently during 2-4 weeks, depending on the test (see below), without any additional treatment. Each animal was tested only in one nociceptive model. […] Each animal received only one dose of compound 63 and was tested in only one nociceptive model.
Procedure for assessment of cold allodynis. Cold allodynia was tested as previously described by Nieto et al., Pain, 2008, 137(3), 520-31, by gently touching the plantar skin of the hind paws with an acetone bubble formed with a syringe connected to a thin polyethylene tube. The mice were housed and habituated for 30 min in transparent plastic boxes (7×7×13 cm) with a floor made of wire mesh. After the adaptation period, acetone was applied alternately three times to each paw at intervals of 30 s, and the duration of licking or biting were recorded. A small mirror was placed behind the chambers to allow clear observation of the paws. The time spent licking or biting the paw was recorded by a stopwatch and represented as the cumulative time of licking/biting in the six measurements. Since licking persisting more than 10 s in the experiments was very unusual, a cut-off time of 10 s was used for each trial.
Therefore, the day 10, after the habituation period to the apparatus, baseline latencies were recorded, 30 min later compound 63 or saline was injected s.c. and paw withdrawal latencies were assessed again 60, 120 and 180 minutes after the injection.
(§3) On that day, duration of hind paw licking/biting was recorded immediately before (time 0) and at several times (60, 120 and 180 min) after the injection of compound 63 or saline.
as §3

The values below come from patent publication US20160199380A1, “Sigma Ligands For the Prevention or Treatment of Pain Induced by Chemotherapy” (Laboratorios del Dr. Esteve, S.A., priority 2009, published 2016).

SMILES strings stand for the structures.

`O=C1[O][Pt]2([NH][C@@H]3CCCC[C@H]3[NH]2)[O]C1=O` [Oxaliplatin, reference compound]: the figures for the “cumulative cold score (acetone test)” value in series [1] (D8), in series [1] (D15) and in series [1] (D16) were 5.0±0.8, 7.0±1.2 and 6.7±0.9, respectively. Moreover, the “reaction time of paw withdrawal (acetone test)” value turned out to be 14.7 ± 0.9 s in series [1] (D8), 11.5 ± 1.6 s in series [1] (D15) and 11.5 ± 0.9 s in series [1] (D16). The “decrease in the reaction time of paw withdrawal as compared to the HPMC/distilled water-treated group” value is listed as −19% in series [1] (D8), −37% in series [1] (D15) and −36% in series [1] (D16).

Turning to `CC(=O)O[C@H]1C(=O)[C@@]2(C)[C@H]([C@H](OC(=O)c3ccccc3)[C@]3(O)C[C@H](OC(=O)[C@H](O)[C@@H](NC(=O)c4ccccc4)c4ccccc4)C(C)=C1C3(C)C)[C@]1(OC(C)=O)CO[C@@H]1C[C@@H]2O` [Paclitaxel], in series [2], the “animals showing a reduction of the mechanical threshold” value turned out to be 96% and the “non-responder animals (mechanical threshold on day 10 not lower than pretreatment)” value is “about 4%”. The “induction of mechanical allodynia (threshold force for paw withdrawal, Von Frey test)” value in series [2] (day 10) is recorded as “induced mechanical allodynia”. Besides, the “patients progressing to dose-limiting neurotoxicity” value in series [3] is 0%. Also, in series [4], the “animals with significantly increased time licking/biting the stimulated paw (paclitaxel-responder animals)” value is reported as 67% and the “paclitaxel-treated animals that did not show cold allodynia” value came to 33%.
